From US12202835B2, “Substituted aromatic ring-linked dioxinoquinazolines and dioxinoquinolines as kinase inhibitors” (BEIJING SCITECH-MQ PHARMACEUTICALS LIMITED, priority 2018, dated 2025)
Where two headings read alike, the source gives them in different places.

Experiments:
c-MET kinase = c-MET kinase (Homo sapiens (Human), UniProt P08581); assay: Assay of small molecular compounds for inhibiting the activity of c-MET kinase (LANCE TR-FRET); format: biochemical; conditions: read-out: CMET IC50
Chain of c-MET kinase (P08581 25-1390): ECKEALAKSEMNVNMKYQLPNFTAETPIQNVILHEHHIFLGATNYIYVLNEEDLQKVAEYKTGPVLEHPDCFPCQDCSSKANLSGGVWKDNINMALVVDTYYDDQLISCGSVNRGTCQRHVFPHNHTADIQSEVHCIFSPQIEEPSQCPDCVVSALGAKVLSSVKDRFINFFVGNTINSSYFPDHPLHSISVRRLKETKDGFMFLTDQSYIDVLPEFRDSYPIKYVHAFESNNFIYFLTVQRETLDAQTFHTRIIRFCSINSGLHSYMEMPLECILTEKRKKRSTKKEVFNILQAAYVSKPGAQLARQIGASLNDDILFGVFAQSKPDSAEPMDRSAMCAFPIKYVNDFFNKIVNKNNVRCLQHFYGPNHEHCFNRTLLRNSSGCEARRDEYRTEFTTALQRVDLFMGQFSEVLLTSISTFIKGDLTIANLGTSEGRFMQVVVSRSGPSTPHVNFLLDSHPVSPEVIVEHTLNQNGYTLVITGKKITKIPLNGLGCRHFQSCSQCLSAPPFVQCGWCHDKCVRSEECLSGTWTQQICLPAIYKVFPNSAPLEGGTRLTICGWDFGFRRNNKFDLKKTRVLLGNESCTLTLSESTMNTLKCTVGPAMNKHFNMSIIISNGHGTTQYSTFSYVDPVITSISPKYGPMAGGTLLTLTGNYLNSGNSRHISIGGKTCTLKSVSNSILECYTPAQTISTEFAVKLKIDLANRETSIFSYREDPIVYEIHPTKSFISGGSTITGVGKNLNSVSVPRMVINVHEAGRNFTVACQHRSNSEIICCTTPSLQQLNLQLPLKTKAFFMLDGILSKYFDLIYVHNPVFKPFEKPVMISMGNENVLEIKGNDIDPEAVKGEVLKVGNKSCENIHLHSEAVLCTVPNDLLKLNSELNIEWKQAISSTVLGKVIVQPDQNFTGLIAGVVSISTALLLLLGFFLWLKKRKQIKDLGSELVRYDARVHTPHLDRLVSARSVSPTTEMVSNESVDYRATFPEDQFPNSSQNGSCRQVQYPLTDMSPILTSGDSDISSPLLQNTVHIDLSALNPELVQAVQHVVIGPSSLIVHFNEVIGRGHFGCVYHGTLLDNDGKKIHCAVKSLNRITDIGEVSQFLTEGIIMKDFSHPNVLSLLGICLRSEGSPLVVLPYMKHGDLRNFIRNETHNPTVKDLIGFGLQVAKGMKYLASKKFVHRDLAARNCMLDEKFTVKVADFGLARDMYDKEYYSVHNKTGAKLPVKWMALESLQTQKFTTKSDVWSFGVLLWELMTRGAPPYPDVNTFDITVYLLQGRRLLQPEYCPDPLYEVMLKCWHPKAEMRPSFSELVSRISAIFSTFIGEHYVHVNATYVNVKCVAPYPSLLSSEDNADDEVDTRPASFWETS
Procedure, shortened: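 Eleven final concentrations from 2500 nM down to 0.042 nM, in 4% DMSO, were tested against human c-MET (2× stock 2 nM), with compound and enzyme premixed for 5 min. The phosphorylation reaction used 4× stock of 400 nM ULight-JAK-1 peptide and 40 μM ATP for 60 min at room temperature, then stop and detection steps. TR-FRET percent inhibition against positive and negative controls gave the IC50.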

Ba/F3-AXL cells = assay: Assay for inhibiting the proliferation of Ba/F3-AXL cells (CCK-8); format: cell-based; conditions: 72 hours of incubation, medium with 100 ng/mL hGas6, CCK-8
Protocol: The values were then imported into Graphpad Prism 5 software for curve fitting, and IC50 was calculated.

MHCC97H cells = assay: Assay for inhibiting the proliferation of MHCC97H cells (CCK-8); format: cell-based
Procedure, shortened: (§1)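 Cells seeded in 96-well plates overnight, then exposed 72 h to 9 three-fold dilutions of compound (0.25% DMSO final). Viability by CCK-8 (1-2 h at 37° C., OD 450 nm), survival normalized to untreated and cell-free blanks; IC50 by curve fitting.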

Ba/F3 LMNA-NTRK1 cells = assay: Assay for inhibiting the proliferation of Ba/F3 LMNA-NTRK1 cells (CCK-8); format: cell-based
Procedure, shortened: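 Viability was read as absorbance at 450 nm following 1–2 h CCK-8 incubation at 37 °C, relative to control and blank wells.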

EBC1 cells = assay: Assay for inhibiting the proliferation of EBC1 cells (CCK-8); format: cell-based
Procedure, shortened: as §1

[1] = system: Ba/F3 LMNA-NTRK1-G595R cells; assay: Assay for inhibiting the proliferation of Ba/F3 LMNA-NTRK1-G595R cells (CCK-8); format: cell-based; conditions: Mus musculus, BaF3
Protocol: In particular, the method of the assay of small molecular compounds for inhibiting cell proliferation is as follows: • 1. Cells cultured to a logarithmic growth phase (adherent cells need to be digested with trypsin and neutralized) were taken, pipetted evenly, transferred to a 15 mL centrifuge tube, and centrifuged at 1000 rpm at room temperature for 4 minutes; • 2. The supernatant was discarded; 5 mL of complete medium was added and pipetted evenly; 10 μL of cell suspension was taken out, mixed well with 10 μL of 0.4% trypan blue, and counted under a cell counter; the proportion of living cells was ensured to be above 90%; • 3. 80 μL of cell suspension per well was seeded into a 96-well plate according to the conditions shown in the attached table, and cultured overnight; in the outer 36 wells of the 96-well plate, no cells were added but only sterile water was added; only the inner 60 wells were used for cell assay and control; • 4. 5×compound dilution: the compounds were serially diluted 3-fold to obtain a total of 9 concentrations; 80-fold overall dilution was completed with complete medium, the resulting concentration was 5 times the final drug concentration, and DMSO concentration was 1.25%; • 5. 20 μL of the corresponding compounds with different concentration gradients were added to each well of assay wells of the 96-well plate; 20 μL of complete medium was added to positive and negative control wells and shaken well; and the final concentration of DMSO in each well was 0.25%; • 6. After 72 hours of incubation, 10 μL of CCK-8 reagent was added to each well and further incubated at 37° C. for 1-2 hours; and the OD value was read at 450 nm; • 7. Cell survival rate (%)=[(As−Ab)/(Ac−Ab)]*100% • As: Assay well (medium containing cells, CCK-8, compound), • Ac: Control well (medium containing cells, CCK-8), • Ab: Blank well (CCK-8, medium without cell and compound), • 8. The values were imported into Graphpad Prism 5 software for IC50 calculation.

Row | Compound | IC50 (c-MET kinase) | IC50 (Ba/F3-AXL cells) | IC50 (MHCC97H cells; Homo sapiens) | IC50 (Ba/F3 LMNA-NTRK1 cells; Mus musculus, BaF3) | IC50 (EBC1 cells; Homo sapiens, EBC-1) | IC50 [1] | IC50 (MHCC97H cells) | IC50 (Ba/F3 LMNA-NTRK1 cells) | IC50 (EBC1 cells)
1 | CCOc1ccn(-c2ccc(F)cc2)c(=O)c1C(=O)Nc1ccc(Oc2ccnc3cc(OCCCN4CCOCC4)c4c(c23)OCCO4)c(F)c1 [Example 22, N-(3-fluoro-4-((5-(3-morpholinopropoxy)-2,3-dihydro-[1,4]dioxino[2,3-f]quinolin-10-yl)oxy)phenyl)-1-(4-fluorophenyl)-4-ethoxy-2-oxo-1,2-dihydropyridine-3-carboxamide] | ≤ 50 nM | < 50 nM | ≤ 50 nM | < 50 nM | ≤ 50 nM | – | – | – | –
2 | COc1cn(-c2ccc(F)cc2C)nc1C(=O)Nc1ccc(Oc2ccnc3cc(OCCCN4CCOCC4)c4c(c23)OCCO4)c(F)c1 [Example 27, 1-(4-fluoro-2-methylphenyl)-N-(3-fluoro-4-((5-(3-morpholinopropoxy)-2,3-dihydro-[1,4]dioxino[2,3-f]quinolin-10-yl)oxy)phenyl)-4-methoxy-1H-pyrazole-3-carboxamide] | ≤ 50 nM | < 50 nM | 50 to 200 nM | < 50 nM | 50 to 200 nM | – | – | – | –
3 | COc1cc2ncnc(Oc3ccc(NC(=O)c4cn(C)c(=O)n(-c5ccc(F)cc5)c4=O)cc3F)c2c2c1OCCO2 [Example 29, N-(3-fluoro-4-((5-methoxy-2,3-dihydro-[1,4]dioxino[2,3-f]quinazolin-10-yl)oxy)phenyl)-3-(4-fluorophenyl)-1-methyl-2,4-dioxo-1,2,3,4-tetrahydropyrimidine-5-carboxamide] | ≤ 50 nM | – | – | < 50 nM | – | 200 to 1000 nM | – | – | –
4 | Cn1cc(C(=O)Nc2ccc(Oc3ncnc4cc(OCCCN5CCOCC5)c5c(c34)OCCO5)c(F)c2)c(=O)n(-c2ccc(F)cc2)c1=O [Example 30, N-(3-fluoro-4-((5-(3-morpholinopropoxy)-2,3-dihydro-[1,4]dioxino[2,3-f]quinazolin-10-yl)oxy)phenyl)-3-(4-fluorophenyl)-1-methyl-2,4-dioxo-1,2,3,4-tetrahydropyrimidine-5-carboxamide] | ≤ 50 nM | – | – | < 50 nM | – | 200 to 1000 nM | – | – | –
5 | O=C(Nc1ccc(Oc2ccnc3cc(OCCCN4CCCCC4)c4c(c23)OCCO4)c(F)c1)c1cccn(-c2ccc(F)cc2)c1=O [Example 31, N-(3-fluoro-4-((5-(3-(piperidin-1-yl)propoxy)-2,3-dihydro-[1,4]dioxino[2,3-f]quinolin-10-yl)oxy)phenyl)-1-(4-fluorophenyl)-2-oxo-1,2-dihydropyridine-3-carboxamide] | ≤ 50 nM | < 50 nM | – | – | – | – | ≤ 50 nM | < 50 nM | ≤ 50 nM
6 | COc1ccn(-c2ccc(F)cc2)c(=O)c1C(=O)Nc1ccc(Oc2ccnc3cc(OCCCN4CCCCC4)c4c(c23)OCCO4)c(F)c1 [Example 32, N-(3-fluoro-4-((5-(3-(piperidin-1-yl)propoxy)-2,3-dihydro-[1,4]dioxino[2,3-f]quinolin-10-yl)oxy)phenyl)-1-(4-fluorophenyl)-4-methoxy-2-oxo-1,2-dihydropyridine-3-carboxamide] | ≤ 50 nM | < 50 nM | 50 to 200 nM | < 50 nM | ≤ 50 nM | – | – | – | –
7 | CCOc1ccn(-c2ccc(F)cc2)c(=O)c1C(=O)Nc1ccc(Oc2ccnc3cc(OCCCN4CCCCC4)c4c(c23)OCCO4)c(F)c1 [Example 33, N-(3-fluoro-4-((5-(3-(piperidin-1-yl)propoxy)-2,3-dihydro-[1,4]dioxino[2,3-f]quinolin-10-yl)oxy)phenyl)-1-(4-fluorophenyl)-4-ethoxy-2-oxo-1,2-dihydropyridine-3-carboxamide] | ≤ 50 nM | < 50 nM | ≤ 50 nM | < 50 nM | ≤ 50 nM | – | – | – | –
8 | COCCOc1cc2nccc(Oc3ccc(NC(=O)c4cccn(-c5ccc(F)cc5)c4=O)cc3F)c2c2c1OCCO2 [Example 34, N-(3-fluoro-4-((5-(2-methoxyethoxy)-2,3-dihydro-[1,4]dioxino[2,3-f]quinolin-10-yl)oxy)phenyl)-1-(4-fluorophenyl)-2-oxo-1,2-dihydropyridine-3-carboxamide] | ≤ 50 nM | < 50 nM | ≤ 50 nM | < 50 nM | ≤ 50 nM | – | – | – | –
9 | COCCOc1cc2nccc(Oc3ccc(NC(=O)c4c(OC)ccn(-c5ccc(F)cc5)c4=O)cc3F)c2c2c1OCCO2 [Example 35, N-(3-fluoro-4-((5-(2-methoxyethoxy)-2,3-dihydro-[1,4]dioxino[2,3-f]quinolin-10-yl)oxy)phenyl)-1-(4-fluorophenyl)-4-methoxy-2-oxo-1,2-dihydropyridine-3-carboxamide] | ≤ 50 nM | < 50 nM | ≤ 50 nM | < 50 nM | ≤ 50 nM | – | – | – | –
10 | CCOc1ccn(-c2ccc(F)cc2)c(=O)c1C(=O)Nc1ccc(Oc2ccnc3cc(OCCOC)c4c(c23)OCCO4)c(F)c1 [Example 36, N-(3-fluoro-4-((5-(2-methoxyethoxy)-2,3-dihydro-[1,4]dioxino[2,3-f]quinolin-10-yl)oxy)phenyl)-1-(4-fluorophenyl)-4-ethoxy-2-oxo-1,2-dihydropyridine-3-carboxamide] | ≤ 50 nM | < 50 nM | ≤ 50 nM | < 50 nM | ≤ 50 nM | – | – | – | –
11 | CC(C)n1cc(C(=O)Nc2ccc(Oc3ccnc4cc(OCCCN5CCOCC5)c5c(c34)OCCO5)c(Cl)c2)c(=O)n(-c2ccc(F)cc2)c1=O [Example 97, N-(3-chloro-4-((5-(3-morpholinopropoxy)-2,3-dihydro-[1,4]dioxino[2,3-f]quinolin-10-yl)oxy)phenyl)-3-(4-fluorophenyl)-1-isopropyl-2,4-dioxo-1,2,3,4-tetrahydropyrimidine-5-carboxamide] | 50 to 500 nM | – | – | < 50 nM | – | 50 to 200 nM | – | – | –
12 | CCOc1ccn(-c2ccc(F)cc2)c(=O)c1C(=O)Nc1ccc(Oc2ccnc3cc(OCC4(N)CC4)c4c(c23)OCCO4)c(F)c1 [Example 105, N-(4-((5-((1-aminocyclopropyl)methoxy)-2,3-dihydro-[1,4]dioxino[2,3-f]quinolin-10-yl)oxy)-3-fluorophenyl)-4-ethoxy-1-(4-fluorophenyl)-2-oxo-1,2-dihydropyridine-3-carboxamide] | ≤ 50 nM | < 50 nM | 50 to 200 nM | 50 to 200 nM | ≤ 50 nM | – | – | – | –
13 | CCOc1ccn(-c2ccc(C)cc2)c(=O)c1C(=O)Nc1ccc(Oc2ccnc3cc(OC)c4c(c23)OCCO4)c(F)c1 [Example 112, N-(3-fluoro-4-((5-methoxy-2,3-dihydro-[1,4]dioxino[2,3-f]quinolin-10-yl)oxy)phenyl)-2-oxo-4-ethoxy-1-(4-methylphenyl)-1,2-dihydropyridin-3-carboxamide] | ≤ 50 nM | < 50 nM | 200 to 1000 nM | < 50 nM | 50 to 200 nM | – | – | – | –
14 | CCOc1ccn(-c2ccc(Cl)cc2)c(=O)c1C(=O)Nc1ccc(Oc2ccnc3cc(OC)c4c(c23)OCCO4)c(F)c1 [Example 113, N-(3-fluoro-4-((5-methoxy-2,3-dihydro-[1,4]dioxino[2,3-f]quinolin-10-yl)oxy)phenyl)-2-oxo-4-ethoxy-1-(4-chlorophenyl)-1,2-dihydropyridin-3-carboxamide] | ≤ 50 nM | < 50 nM | 50 to 200 nM | < 50 nM | 50 to 200 nM | – | – | – | –
15 | CCOc1ccn(-c2ccc(F)cc2)c(=O)c1C(=O)Nc1cc(F)c(Oc2ccnc3cc(OC)c4c(c23)OCCO4)cc1Cl [Example 115, N-(2-chloro-5-fluoro-4-((5-methoxy-2,3-dihydro-[1,4]dioxino[2,3-f]quinolin-10-yl)oxy)phenyl)-4-ethoxy-2-oxo-1-(4-fluorophenyl)-1,2-dihydropyridin-3-carboxamide] | ≤ 50 nM | < 50 nM | ≤ 50 nM | < 50 nM | ≤ 50 nM | – | – | – | –
